Values of other authors, collected in patent US20080175925A1, “Method and composition for the treatment of herpes virus” (priority 2007, published 2008).

What was measured:
HSV-1 [1] = settings: guinea pig model
HSV-1 [2] = settings: in vitro
[3] = tested on: Herpesvirus hominis oral stain SUE (herpesvirus h simplex-1); settings: solution of 0.02% w/v
[4] = tested on: Herpesvirus hominis genital strain MVC 70 (herpesvirus h simplex 0-2); settings: solution of 0.02% w/v

Question: Which results are given for `Nc1nc2c(ncn2COCCO)c(=O)[nH]1` [Acyclovir]?
Answer: viral titers (HSV-1 [1]): reduced viral titers; lesion development, duration and severity scores (HSV-1 [1]; compared to vehicle control or acyclovir): did not reduce lesion development, duration or severity

Question: For `NC(CCC(=O)NC(CS)C(=O)NCC(=O)O)C(=O)O` (stereo not drawn) [GSH, 2-amino-5-{[2-[(carboxymethyl)amino]-1-(mercaptomethyl)-2-oxoethyl]amino}-5-oxopentanoic acid], which “inhibition of replication of HSV-1” value (HSV-1 [2]; addition of exogenous GSH) is on record?
Answer: Its value is over 99%.

Question: What about the “intracellular GSH levels after virus challenge” value (HSV-1 [2]; addition of exogenous GSH to infected cells) of the same compound?
Answer: Its value is “restore its intracellular levels almost up to those found in uninfected cells”.

Question: For `[H]/N=C(\N/C(=N/[H])NCCCCCCNC(=N)NC(=N)Nc1ccc(Cl)cc1)Nc1ccc(Cl)cc1` [chlorhexidine], which “infectivity of HVH strain SUE (HSV-1)” value [3] is on record?
Answer: The value was “reduced the infectivity”.

Question: And the “infectivity of HVH strain MVC 70 (HSV-2)” value [4]?
Answer: Its value is “reduced the infectivity”.
